The values that follow come from PubChem BioAssay (NCI).

SMILES strings stand for the structures.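 Exposure lasted 48 hours, with cells grown in 96-well plates and compounds tested at five concentrations. At the GI50, growth is halved. Definition used: TGI = concentration required for complete inhibition of growth.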 Some results are limits rather than exact numbers.

Among the test systems are COLO 205 colon; HOP-62 NSCLC; MALME-3M melanoma; NCI-H460 lung; OVCAR-4 ovarian; SF-268 CNS; SK-MEL-5 melanoma; DU-145 prostate; HS 578T breast.
Common to all, as to test: inhibition of tumour cell growth, NCI panel, 48 h

With `C[C@H]1[C@H](C)CC[C@]2(C(=O)O)CCC3(COC(=O)/C=C/c4ccc(O)cc4)C(=CCC4[C@@]5(C)CC[C@H](O)C(C)(C)C5CC[C@]43C)[C@H]12` (stereo partly specified), the TGI with COLO 205 colon was 17.9 µM; in the assay on HOP-62 NSCLC it was 23 µM; with MALME-3M melanoma it was 37.2 µM; in the assay with NCI-H460 lung, 11.2 µM; in the assay with OVCAR-4 ovarian it was 29.7 µM; in the assay on SF-268 CNS, 22.5 µM. Also, the TGI in the assay with SK-MEL-5 melanoma stood at 24.4 µM.

For the compound `O=C(CC1(O)C(=O)Nc2c(Cl)cc(Cl)cc21)c1ccc([N+](=O)[O-])cc1` (stereo unspecified), the TGI with COLO 205 colon was over 92.7 µM; in the assay on HOP-62 NSCLC, over 100 µM; with MALME-3M melanoma it was over 60.7 µM; in the assay with NCI-H460 lung, over 100 µM; with OVCAR-4 ovarian, 31.2 µM; in the assay with SF-268 CNS it was over 100 µM. The compound also gave a TGI in the assay with SK-MEL-5 melanoma of over 57.3 µM.

With `CCc1cc2c(Nc3ccccc3)c3c(nc2s1)CCCC3`, the TGI with COLO 205 colon, in the assay on HOP-62 NSCLC, with MALME-3M melanoma, with NCI-H460 lung, in the assay on OVCAR-4 ovarian and in the assay with SF-268 CNS was over 100 µM throughout. For the same compound, the TGI with SK-MEL-5 melanoma is over 100 µM.

Turning to `CC(/C=C1\CCC(CN(C)C)C1=O)c1cccc(Br)c1` (stereo unspecified), the TGI in the assay with COLO 205 colon was 37.4 µM; in the assay with HOP-62 NSCLC it was 42.2 µM; in the assay on MALME-3M melanoma it was 32.4 µM; in the assay with NCI-H460 lung, over 70.2 µM; in the assay with OVCAR-4 ovarian, 32.3 µM; in the assay on SF-268 CNS, 43.7 µM. The compound further came in with a TGI with SK-MEL-5 melanoma of 18.8 µM.

Regarding `Cc1cc(=O)n2c(cc3cccccc32)n1`, the TGI with COLO 205 colon, in the assay on HOP-62 NSCLC, in the assay with NCI-H460 lung, with OVCAR-4 ovarian and in the assay on SF-268 CNS was over 100 µM in each case.

For `COc1ccc(C(=O)Nc2ccn(CCOC(=O)c3ccc(OC)cc3)c(=O)n2)cc1`, the TGI in the assay with COLO 205 colon, in the assay with HOP-62 NSCLC, in the assay on MALME-3M melanoma, in the assay with NCI-H460 lung, with OVCAR-4 ovarian and in the assay with SF-268 CNS was over 100 µM each time. In addition, the TGI in the assay on SK-MEL-5 melanoma was over 100 µM.

With `CC(Oc1ccc2c(=O)cc(-c3ccccc3)oc2c1)C(=O)O` (stereo unspecified), the TGI with COLO 205 colon, in the assay on HOP-62 NSCLC, in the assay on MALME-3M melanoma, in the assay on NCI-H460 lung, in the assay on OVCAR-4 ovarian and with SF-268 CNS was over 100 µM in each case. In the assay on SK-MEL-5 melanoma, this compound showed a TGI of over 100 µM.

Take `O=c1oc2c(O)c(O)cc3c(=O)oc4c(O)c(O)cc1c4c23`: the GI50 in the assay on COLO 205 colon and in the assay on SK-MEL-5 melanoma was over 100 µM throughout. For the same compound, the TGI in the assay with COLO 205 colon, with NCI-H460 lung, in the assay on OVCAR-4 ovarian, in the assay on SF-268 CNS and with SK-MEL-5 melanoma was over 100 µM in each case.

With `CC1OC(OC2C(O)C(OCCc3ccc(O)c(O)c3)OC(CO)C2OC(=O)/C=C/c2ccc(O)c(O)c2)C(O)C(O)C1O` (stereo unspecified), the GI50 was over 100 µM in the assay with COLO 205 colon; 13.5 µM with DU-145 prostate; over 100 µM in the assay with HOP-62 NSCLC; over 100 µM in the assay on HS 578T breast; over 100 µM in the assay on NCI-H460 lung; over 100 µM in the assay with OVCAR-4 ovarian. Further, the GI50 with SF-268 CNS and in the assay on SK-MEL-5 melanoma was over 100 µM in each case. Further, the TGI was over 100 µM with COLO 205 colon; 27.4 µM in the assay on DU-145 prostate; over 100 µM with HOP-62 NSCLC; over 100 µM in the assay with HS 578T breast; over 100 µM with NCI-H460 lung; over 100 µM in the assay on OVCAR-4 ovarian. Moreover, the TGI with SF-268 CNS and in the assay on SK-MEL-5 melanoma was over 100 µM in each case.

Turning to `CC(O)(c1ccc(OCCC[N+](C)(C)C)cc1)C(C)(O)c1ccc(OCCC[N+](C)(C)C)cc1` (stereo unspecified), the TGI with COLO 205 colon, in the assay on HOP-62 NSCLC, with MALME-3M melanoma, with NCI-H460 lung, in the assay on OVCAR-4 ovarian and with SF-268 CNS was over 100 µM each time.

Consider `CC1=C(C(=O)Nc2ccccc2C)C(c2ccccc2O)C(C(=O)Nc2ccccc2C)=C(C)N1`, for which the TGI turned out to be 45.8 µM in the assay with HOP-62 NSCLC; 92.4 µM in the assay on MALME-3M melanoma; 31.1 µM in the assay on NCI-H460 lung; 54.8 µM in the assay on OVCAR-4 ovarian; 70.1 µM with SF-268 CNS; 61.8 µM in the assay on SK-MEL-5 melanoma.

Take `CSC(=NC(=O)c1ccccc1)SCCSC(=NC(=O)c1ccccc1)SC`: the TGI in the assay with COLO 205 colon was over 100 µM; with HOP-62 NSCLC, over 100 µM; in the assay on MALME-3M melanoma, over 100 µM; in the assay on NCI-H460 lung it was over 100 µM; in the assay on OVCAR-4 ovarian, 87.6 µM; in the assay on SF-268 CNS it was over 100 µM. The compound further returned a TGI in the assay with SK-MEL-5 melanoma of over 100 µM.

Consider `Nc1nc(N)c(CCCCc2ccccc2)c(/C=C/c2ccc([N+](=O)[O-])cc2)n1`, for which the TGI is 47.6 µM in the assay on COLO 205 colon; 12.4 µM in the assay with HOP-62 NSCLC; 9.17 µM in the assay with MALME-3M melanoma; 39.5 µM in the assay with NCI-H460 lung; 18.4 µM in the assay with OVCAR-4 ovarian; 48.2 µM in the assay with SF-268 CNS. The compound further gave a TGI in the assay on SK-MEL-5 melanoma of 16.3 µM.

Consider `CCCCCCCCC1C(C)c2c([nH]c3ccccc23)C2C(=O)N(c3ccccc3)C(=O)C21` (stereo unspecified), for which the TGI stood at 38.3 µM with HOP-62 NSCLC; 39.1 µM in the assay on MALME-3M melanoma; 12.9 µM in the assay with NCI-H460 lung; 15.8 µM with OVCAR-4 ovarian; 31.7 µM in the assay with SK-MEL-5 melanoma.

As for `C=C1CCCC2OC(OC)CCC12` (stereo unspecified), the TGI with COLO 205 colon, in the assay with HOP-62 NSCLC, with MALME-3M melanoma, with NCI-H460 lung, with OVCAR-4 ovarian and with SF-268 CNS was over 100 µM each time. Besides, in the assay on SK-MEL-5 melanoma, the TGI was over 100 µM.

Take `C=C(C)C1CC=C(C)C(O)([C@@]2(O)C[C@H](C(=C)C)CC=C2C)C1` (stereo partly specified): the TGI in the assay with HOP-62 NSCLC was 35 µM; in the assay with MALME-3M melanoma, 81.8 µM; in the assay with NCI-H460 lung, 34.6 µM; in the assay on OVCAR-4 ovarian, 56.2 µM; in the assay on SF-268 CNS, over 100 µM; in the assay with SK-MEL-5 melanoma, 28.3 µM.

On to `CC1(C)C2=CCCC(=O)[C@@]2(C)CC[C@@H]1O`, for which the TGI with COLO 205 colon, in the assay with HOP-62 NSCLC, in the assay on NCI-H460 lung, in the assay on OVCAR-4 ovarian, with SF-268 CNS and in the assay with SK-MEL-5 melanoma was over 100 µM in each case.

For `CC1(C)C=C(N2CCN(C3=CC(C)(C)NC(C)(C)C3)CC2)CC(C)(C)N1`, the TGI in the assay on HOP-62 NSCLC, with NCI-H460 lung, in the assay on OVCAR-4 ovarian, with SF-268 CNS and in the assay with SK-MEL-5 melanoma was over 100 µM each time.

`CC(=O)CCn1[nH]c(=O)c(Cl)c(Cl)c1=O`: the TGI in the assay with HOP-62 NSCLC, in the assay on MALME-3M melanoma, in the assay on NCI-H460 lung, with OVCAR-4 ovarian, with SF-268 CNS and in the assay on SK-MEL-5 melanoma was over 100 µM throughout.

As to `CCCCCCCCCCCCCP(=O)(OC)OC`, the TGI in the assay on COLO 205 colon came to 34.2 µM; in the assay on HOP-62 NSCLC, 28.2 µM; in the assay on MALME-3M melanoma it was 38.3 µM; in the assay on NCI-H460 lung it was 31.3 µM; in the assay on OVCAR-4 ovarian it was 34.6 µM; in the assay on SK-MEL-5 melanoma it was 32.6 µM.

With `COC(=O)/C(=N\Nc1nc(=S)[nH]n1N)C(C#N)c1ccc(Cl)cc1` (stereo unspecified), the TGI in the assay with COLO 205 colon, in the assay with HOP-62 NSCLC, in the assay with MALME-3M melanoma, with NCI-H460 lung, in the assay on OVCAR-4 ovarian and with SF-268 CNS was over 100 µM each time.

As to `CC(=O)OC(C)(C)C[N+](=O)[O-]`, the TGI in the assay with COLO 205 colon, in the assay with HOP-62 NSCLC, in the assay on MALME-3M melanoma, in the assay on NCI-H460 lung, in the assay with OVCAR-4 ovarian and in the assay on SF-268 CNS was over 100 µM each time.

Take `COC(=O)/C=C(C)/C=C/c1c(C)c(C(C)=O)c(C)n1C`: the TGI in the assay with COLO 205 colon, in the assay on HOP-62 NSCLC, in the assay on MALME-3M melanoma, in the assay on OVCAR-4 ovarian and in the assay on SF-268 CNS was over 100 µM each time.

Regarding `Cc1ccc(-c2nc3ccccc3c(=O)n2NC2OC(CO)C(O)C(O)C2O)cc1` (stereo unspecified), the TGI in the assay with COLO 205 colon, with HOP-62 NSCLC, in the assay on MALME-3M melanoma, with NCI-H460 lung, in the assay on OVCAR-4 ovarian and in the assay on SF-268 CNS was over 100 µM each time. In the assay with SK-MEL-5 melanoma, this compound registered a TGI of over 100 µM.

Regarding `O=C1CS(=O)c2ccccc2N1` (stereo unspecified), the TGI in the assay with COLO 205 colon, in the assay with HOP-62 NSCLC, with MALME-3M melanoma, with NCI-H460 lung, in the assay on OVCAR-4 ovarian and in the assay on SF-268 CNS was over 100 µM in each case. Further, the TGI in the assay on SK-MEL-5 melanoma was over 100 µM.

`CCN(CC)CCCNc1nccc2c(C)c3[nH]c4ccncc4c(=O)c3cc12`: the TGI with COLO 205 colon was determined as 12.5 µM; in the assay on HOP-62 NSCLC it was 16.7 µM; in the assay on MALME-3M melanoma, 14.8 µM; with NCI-H460 lung it was 7.04 µM; with OVCAR-4 ovarian, 3.07 µM; in the assay with SF-268 CNS, 4.46 µM. The same compound showed a TGI with SK-MEL-5 melanoma of 14.1 µM.

As to `O=C1C(c2ccccc2)=[N+]([O-])c2cc([N+](=O)[O-])ccc21`, the TGI in the assay on COLO 205 colon is 36.9 µM; with HOP-62 NSCLC, over 100 µM; with MALME-3M melanoma it was 36.1 µM; in the assay on NCI-H460 lung, 56.8 µM; with SF-268 CNS it was 46.9 µM; with SK-MEL-5 melanoma, 39.2 µM.
